Laboratory results: the NIST ThermoML archive (doi:10.1021/je900124n)
“And” between values parts separate entries of the source, which are not always exact repeats. Equal entries are not always repeated. Numbers after ± are expanded uncertainties.

Settings: Fluid (supercritical or subcritical phases), Buoyancy - hydrostatic balance with magnetic suspension - two sinkers

With CCC [propane] the mass density (375 K, 4455 kPa) was 148.081 ± 0.3 kg/m3 [middle of 5 runs], the mass density (375 K, 4455.1 kPa) was 148.084 ± 0.3 kg/m3 and 148.085 ± 0.3 kg/m3 and 148.081 ± 0.3 kg/m3 and the mass density (375 K, 4456.1 kPa) was 148.366 ± 0.097 kg/m3 and 148.364 ± 0.097 kg/m3 and 148.371 ± 0.097 kg/m3. For the same compound, the mass density (375 K, 4456.2 kPa) was 148.361 ± 0.097 kg/m3, the mass density (375 K, 4568.9 kPa) was 178.196 ± 0.12 kg/m3 [middle of 4 runs] and the mass density (375 K, 4569 kPa) was 178.185 ± 0.12 kg/m3. The mass density (375 K, 4609.7 kPa) was 197.026 ± 0.44 kg/m3 and 197.015 ± 0.44 kg/m3, the mass density (375 K, 4609.8 kPa) was 197.023 ± 0.44 kg/m3 [middle of 5 runs] and the mass density (375 K, 4630.9 kPa) was 208.979 ± 0.095 kg/m3. The mass density (375 K, 4631 kPa) was 208.963 ± 0.095 kg/m3 and 208.962 ± 0.095 kg/m3 and 208.991 ± 0.095 kg/m3, the mass density (375 K, 4631.1 kPa) was 208.972 ± 0.095 kg/m3 and the mass density (375 K, 4648.5 kPa) was 219.668 ± 0.34 kg/m3. The mass density (375 K, 4648.6 kPa) was 219.65 ± 0.34 kg/m3 [middle of 6 runs], the mass density (375 K, 4648.7 kPa) was 219.656 ± 0.34 kg/m3 and the mass density (375 K, 4660.8 kPa) was 226.495 ± 0.085 kg/m3. The mass density (375 K, 4660.9 kPa) was 226.503 ± 0.085 kg/m3 and 226.483 ± 0.085 kg/m3, the mass density (375 K, 4661 kPa) was 226.54 ± 0.085 kg/m3 and the mass density (375 K, 4694.5 kPa) was 243.594 ± 0.41 kg/m3 and 243.602 ± 0.41 kg/m3 and 243.583 ± 0.41 kg/m3. For the same compound, the mass density (375 K, 4694.6 kPa) was 243.603 ± 0.41 kg/m3 [middle of 4 runs], the mass density (375 K, 4761.6 kPa) was 265.09 ± 0.087 kg/m3 and the mass density (375 K, 4761.7 kPa) was 265.094 ± 0.087 kg/m3 and 265.087 ± 0.087 kg/m3. The mass density (375 K, 4761.8 kPa) was 265.087 ± 0.087 kg/m3, the mass density (375 K, 4761.9 kPa) was 265.101 ± 0.087 kg/m3 and the mass density (375 K, 4846.9 kPa) was 281.14 ± 0.22 kg/m3 [middle of 4 runs]. For the same compound, the mass density (375 K, 4847.1 kPa) was 281.138 ± 0.22 kg/m3 and 281.143 ± 0.22 kg/m3, the mass density (375 K, 5843.8 kPa) was 337.161 ± 0.077 kg/m3 and the mass density (375 K, 5843.9 kPa) was 337.161 ± 0.077 kg/m3. The mass density (375 K, 5844 kPa) was 337.161 ± 0.077 kg/m3 and 337.159 ± 0.077 kg/m3, the mass density (375 K, 5844.1 kPa) was 337.162 ± 0.077 kg/m3 and the mass density (375 K, 5844.2 kPa) was 337.16 ± 0.077 kg/m3 and 337.158 ± 0.077 kg/m3. For the same compound, the mass density (375.01 K, 4661 kPa) was 226.502 ± 0.085 kg/m3, the mass density (375.01 K, 4847.1 kPa) was 281.141 ± 0.22 kg/m3 and 281.139 ± 0.22 kg/m3 and the mass density (380 K, 320.18 kPa) was 4.576 ± 0.0029 kg/m3. The mass density (380 K, 320.19 kPa) was 4.576 ± 0.0029 kg/m3, the mass density (380 K, 569.88 kPa) was 8.3091 ± 0.0033 kg/m3 and 8.3093 ± 0.0033 kg/m3 and the mass density (380 K, 569.89 kPa) was 8.3092 ± 0.0033 kg/m3 and 8.3093 ± 0.0033 kg/m3. It also gave a mass density (380 K, 954.79 kPa) of 14.3809 ± 0.0041 kg/m3, a mass density (380 K, 954.8 kPa) of 14.3809 ± 0.0041 kg/m3 and a mass density (380 K, 954.81 kPa) of 14.3809 ± 0.0041 kg/m3. It also gave a mass density (380 K, 1441 kPa) of 22.71 ± 0.026 kg/m3, a mass density (380 K, 1441.3 kPa) of 22.7154 ± 0.026 kg/m3 and a mass density (380 K, 1442 kPa) of 22.7271 ± 0.026 kg/m3. The mass density (380 K, 1442.3 kPa) was 22.733 ± 0.026 kg/m3, the mass density (380 K, 1442.6 kPa) was 22.7383 ± 0.026 kg/m3 and the mass density (380 K, 2208.6 kPa) was 37.8037 ± 0.031 kg/m3 [middle of 4 runs]. The mass density (380 K, 2208.8 kPa) was 37.8087 ± 0.031 kg/m3, the mass density (380 K, 3020.8 kPa) was 57.7697 ± 0.038 kg/m3 and 57.7694 ± 0.038 kg/m3 and the mass density (380 K, 3020.9 kPa) was 57.7728 ± 0.038 kg/m3. It also gave a mass density (380 K, 3021 kPa) of 57.7733 ± 0.038 kg/m3, a mass density (380 K, 3021.1 kPa) of 57.7794 ± 0.038 kg/m3 and a mass density (380 K, 3513.2 kPa) of 73.3301 ± 0.055 kg/m3. For the same compound, the mass density (380 K, 3513.4 kPa) was 73.3336 ± 0.055 kg/m3, the mass density (380 K, 3513.5 kPa) was 73.3364 ± 0.055 kg/m3 and the mass density (380 K, 3513.6 kPa) was 73.3391 ± 0.055 kg/m3 and 73.3404 ± 0.055 kg/m3 and 73.3402 ± 0.055 kg/m3. For the same compound, the mass density (380 K, 4131.9 kPa) was 100.514 ± 0.089 kg/m3, the mass density (380 K, 4132 kPa) was 100.514 ± 0.089 kg/m3 and the mass density (380 K, 4132.1 kPa) was 100.516 ± 0.089 kg/m3 and 100.515 ± 0.089 kg/m3. It also gave a mass density (380 K, 4703.8 kPa) of 148.075 ± 0.14 kg/m3.
